The target of this assay is T1, human chemokine receptor 2 isoform B (Homo sapiens, UniProt P41597).
T1 construct: host or cells: CHOK1-CCR2B-A5 (CHO-K1)
T1 sequence (P41597 1-360 isoform P41597-2): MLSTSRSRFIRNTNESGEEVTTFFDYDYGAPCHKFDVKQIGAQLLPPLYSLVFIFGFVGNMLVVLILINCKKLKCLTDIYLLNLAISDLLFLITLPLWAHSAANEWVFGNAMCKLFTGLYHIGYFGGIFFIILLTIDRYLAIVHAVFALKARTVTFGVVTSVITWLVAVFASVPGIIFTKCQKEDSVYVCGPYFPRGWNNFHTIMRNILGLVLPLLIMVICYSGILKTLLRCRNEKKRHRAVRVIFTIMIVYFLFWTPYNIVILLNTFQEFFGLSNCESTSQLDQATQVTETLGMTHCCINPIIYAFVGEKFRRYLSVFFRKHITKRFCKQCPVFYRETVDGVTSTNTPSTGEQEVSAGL
In words: Calcium mobilization assay (FLIPR, CHOK1-CCR2B-A5 cells, 20 nM MCP-1). It counts as cell-based. To be noted: Ca mobilisation assay, CCR2, antagonist activity vs 20 nM MCP-1. Summed up: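 Antagonism read as IC50 against 20 nM MCP-1-evoked calcium rise (peak minus baseline Fluo-4 signal, FLIPR) in CCR2B-overexpressing CHO-K1 cells. Compounds were preincubated 20-30 min at 30 °C, with agonist activity recorded for 80 s on addition.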
On the technique in general: A change in cytosolic calcium serves as a functional read-out for many receptors and channels.

For orientation: IC50 means the midpoint of a concentration-inhibition curve. `O=C(/C=C/c1ccc(Cl)c(Cl)c1)N1CCC(=O)N(CCN2CCC[C@H]2CO)CC1` [Example 117, (S)-1-[(E)-3-(3,4-Dichloro-phenyl)-acryloyl]-4-[3-(2-hydroxymethyl-pyrrolidin-1-yl)-ethyl]-[1,4]diazepan-5-one]: the IC50 was determined as 459 nM.

As for `O=C(/C=C/c1ccc(Cl)c(Cl)c1)N1CCC(=O)N(C[C@@H](O)CN2CC[C@H](CO)[C@H](O)C2)CC1` (mixture of isomers) [Example 328, 1-[(E)-3-(3,4-Dichloro-phenyl)-acryloyl]-4-[(S)-2-hydroxy-3-(cis-3-hydroxy-4-hydroxymethyl-piperidin-1-yl)-propyl]-[1,4]diazepan-5-one], the IC50 was found to be 28 nM.

For the molecule `O=C(/C=C/c1ccc(Cl)c(Cl)c1)N1CCC(=O)N(CCCN2CCCC(CO)C2)CC1` (racemic) [Example 228], the IC50 is 149 nM.

On to `O=C(/C=C/c1ccc(Cl)c(Cl)c1)N1CCC(=O)N(CCCCN2CCN(C3CCCC3)CC2)CC1` [Example 438], for which the IC50 stood at 369 nM.

On to `O=C(C=Cc1ccc(Cl)c(Cl)c1)N1CCC(=O)N(CCCNC2CCC(O)(c3ccccn3)CC2)CC1` (stereo not drawn) [Example 65, trans-1-[(E)-3-(3,4-Dichloro-phenyl)-acryloyl]-4-[3-(4-hydroxy-4-pyridin-2-yl-cyclohexylamino)-propyl]-[1,4]diazepan-5-one], for which the IC50 was 197 nM.

Take `O=C(/C=C/c1ccc(Cl)c(Cl)c1)N1CCC(=O)N(CCCCN2CC[C@@H](O)[C@H](O)C2)CC1` (racemic) [Example 165, 1-[(E)-3-(3,4-Dichloro-phenyl)-acryloyl]-4-[4-((3RS,4RS)-3,4-dihydroxy-piperidin-1-yl)-butyl]-[1,4]diazepan-5-one]: the IC50 worked out at 345 nM.

As for `CC1CCN(CCCN2CCN(C(=O)C=Cc3ccc(Cl)c(F)c3)CCC2=O)CC1O` (single isomer, unassigned) [Example 492, 1-[(E)-3-(4-Chloro-3-fluoro-phenyl)-acryloyl]-4-[3-((−,cis)-3-hydroxy-4-methyl-piperidin-1-yl)-propyl]-[1,4]diazepan-5-one], the IC50 stood at 26 nM.

As to `COCC1(C)CCCN(CCCN2CCN(C(=O)/C=C/c3ccc(Cl)c(Cl)c3)CCC2=O)C1` (racemic) [Example 249], the IC50 is 1250 nM.

Regarding `O=C(/C=C/c1ccc(Cl)c(Cl)c1)N1CCC(=O)N(CCC(O)CN2CCC(CO)CC2)CC1` (racemic) [Example 379], the IC50 turned out to be 1500 nM.

Consider `Cc1nc(C2CCN(CCCN3CCN(C(=O)/C=C/c4ccc(Cl)c(Cl)c4)CCC3=O)CC2)n[nH]1` [Example 58, 1-[(E)-3-(3,4-Dichloro-phenyl)-acryloyl]-4-{3-[4-(5-methyl-1H-[1,2,4]triazol-3-yl)-piperidin-1-yl]-propyl}-[1,4]diazepan-5-one], for which the IC50 is 546 nM.

For the molecule `O=C(/C=C/c1ccc(Cl)c(Cl)c1)N1CCC(=O)N(CCCCN2CCC(O)C2)CC1` (racemic) [Example 433], the IC50 was determined as 244 nM.

Take `CC1C(O)CCCN1CCCCN1CCN(C(=O)C=Cc2ccc(Cl)c(Cl)c2)CCC1=O` (mixture of isomers) [Example 428, (rac,trans)-1-[(E)3-(3,4-Dichloro-phenyl)-acryloyl]-4-[4-(3-hydroxy-2-methyl-piperidin-1-yl)-butyl]-[1,4]diazepan-5-one]: the IC50 was determined as 113 nM.

On to `O=C(/C=C/c1ccc(Cl)c(Cl)c1)N1CCC(=O)N(CCCN2CCC(O)C3(CC3)C2)CC1` (racemic) [Example 252], for which the IC50 stood at 120 nM.

Regarding `COCCN1CCN(CCCCN2CCN(C(=O)/C=C/c3ccc(F)c(Cl)c3)CCC2=O)CC1` [Example 399], the IC50 came out at 720 nM.

With “(rac)-1-[(E)-3-(3,4-Dichloro-phenyl)-acryloyl]-4-[4-(3-hydroxy-5-methoxymethyl-piperidin-1-yl)-butyl]-[1,4]diazepan-5-one [Example 490]”, the IC50 was determined as 26 nM.

As for `O=C(/C=C/c1ccc(Cl)c(Cl)c1)N1CCC(=O)N(CCCN2CCC(F)(F)CC2)CC1` [Example 55, 1-[(E)-3-(3,4-Dichloro-phenyl)-acryloyl]-4-[3-(4,4-difluoro-piperidin-1-yl)-propyl]-[1,4]diazepan-5-one], the IC50 was 98 nM.

`O=C(/C=C/c1ccc(Cl)c(Cl)c1)N1CCC(=O)N(CCCCN2CCCC(O)C2)CC1` (racemic) [Example 161, 1-[(E)-3-(3,4-Dichloro-phenyl)-acryloyl]-4-[4-(3-hydroxy-piperidin-1-yl)-butyl]-[1,4]diazepan-5-one]: the concentration for half-maximal inhibition (IC50) was 47 nM.

Turning to `O=C(/C=C/c1ccc(Cl)c(Cl)c1)N1CCC(=O)N(CCCN2CCC[C@@H](O)C2)CC1` [Example 91, (R)-1-[(E)-3-(3,4-Dichloro-phenyl)-acryloyl]-4-[3-(3-hydroxy-piperidin-1-yl)-propyl]-[1,4]diazepan-5-one], the IC50 stood at 148 nM.

Regarding `CC(=O)NC1CCN(CCCCN2CCN(C(=O)/C=C/c3ccc(Cl)c(Cl)c3)CCC2=O)CC1` [Example 453], the IC50 is 33 nM.

With “4-(3-{4-[(E)-3-(3,4-Dichloro-phenyl)-acryloyl]-7-oxo-[1,4]diazepan-1-yl}-propylamino)-cyclohexanecarboxylic acid ethyl ester [Example 67]”, the IC50 turned out to be 241 nM.

For `CN(CCN1CCN(C(=O)/C=C/c2ccc(Cl)c(Cl)c2)CCC1=O)C1CCCC1` [Example 109, 4-[-3-(Cyclopentyl-methyl-amino)-ethyl]-1-[(E)-3-(3,4-dichloro-phenyl)-acryloyl]-[1,4]diazepan-5-one], the 50% inhibitory concentration (IC50) was 521 nM.

Take `CC1CCN(CCCN2CCN(C(=O)/C=C/c3ccc(Cl)c(Cl)c3)CCC2=O)CC1` [Example 50, 1-[(E)-3-(3,4-Dichloro-phenyl)-acryloyl]-4-[3-(4-methyl-piperidin-1-yl)-propyl]-[1,4]diazepan-5-one]: the IC50 was 55 nM.

For `CC1CCCCC1NCCCN1CCN(C(=O)C=Cc2ccc(Cl)c(Cl)c2)CCC1=O` (mixture of isomers) [Example 64, cis/trans-1-[(E)-3-(3,4-Dichloro-phenyl)-acryloyl]-4-[3-(2-methyl-cyclohexylamino)-propyl]-[1,4]diazepan-5-one], the IC50 was 391 nM.

Regarding `O=C(/C=C/c1ccc(Cl)c(Cl)c1)N1CCC(=O)N(CC(O)CN2CCC3(CCCO3)CC2)CC1` (racemic) [Example 326], the IC50 came out at 999 nM.

With `CCN(CC)C1CCN(CCCN2CCN(C(=O)/C=C/c3ccc(Cl)c(Cl)c3)CCC2=O)C1` (racemic) [Example 278, (rac)-1-[(E)-3-(3,4-Dichloro-phenyl)-acryloyl]-4-[3-(3-diethylamino-pyrollidin-1-yl)-propyl]-[1,4]diazepan-5-one], the IC50 is 540 nM.

For the molecule `CC1(C)CCN(C[C@H](O)CCN2CCN(C(=O)/C=C/c3ccc(Cl)c(Cl)c3)CCC2=O)CC1O` (stereo partly shown) [Example 501], the IC50 was 155 nM.

`C[C@]1(CO)CCN(CCCN2CCN(C(=O)/C=C/c3ccc(F)c(Cl)c3)CCC2=O)C[C@H]1O` (racemic) [Example 219]: the 50% inhibitory concentration (IC50) amounted to 45 nM.

Consider `O=C(/C=C/c1ccc(Cl)c(F)c1)N1CCC(=O)N(CCCN2CCC3(CC3)C(O)C2)CC1` (stereo not drawn) [Example 494, 1-[(E)-3-(4-Chloro-3-fluoro-phenyl)-acryloyl]-4-[3-((−)-4-hydroxy-6-aza-spiro[2.5]oct-6-yl)-propyl]-[1,4]diazepan-5-one], for which the IC50 was 6 nM.

On to `COC1CCCN(CC(O)CN2CCN(C(=O)/C=C/c3ccc(Cl)c(Cl)c3)CCC2=O)C1` (racemic) [Example 283], for which the IC50 came to 311 nM.

For the molecule `CC1(C)CCN(CCCCN2CCN(C(=O)/C=C/c3ccc(Cl)c(F)c3)CCC2=O)CC1O` (racemic) [Example 420], the IC50 worked out at 52 nM.

Take `O=C(/C=C/c1ccc(Cl)c(Cl)c1)N1CCC(=O)N(CCCN2CCC(C(F)(F)F)CC2)CC1` [Example 72, 1-[(E)-3-(3,4-Dichloro-phenyl)-acryloyl]-4-[3-(4-trifluoromethyl-piperidin-1-yl)-propyl]-[1,4]diazepan-5-one]: the IC50 was found to be 312 nM.

With `COCC1CCCN(CC(O)CCN2CCN(C(=O)/C=C/c3ccc(Cl)c(Cl)c3)CCC2=O)C1` (racemic) [Example 361], the IC50 stood at 226 nM.

As to `CC1(C)CCN(CCCCN2CCN(C(=O)/C=C/c3ccc(Cl)c(Cl)c3)CCC2=O)CC1O` (racemic) [Example 481], the IC50 turned out to be 9 nM.

For `O=C(/C=C/c1ccc(F)c(Cl)c1)N1CCC(=O)N(CCCCN2CC[C@H](F)[C@@H](O)C2)CC1` (relative stereo) [Example 389], the IC50 is 323 nM.

On to `CN(C)C1CCN(CCCN2CCN(C(=O)/C=C/c3ccc(Cl)c(Cl)c3)CCC2=O)C1` (racemic) [Example 277, (rac)-1-[(E)-3-(3,4-Dichloro-phenyl)-acryloyl]-4-[3-(3-dimethylamino-pyrollidin-1-yl)-propyl]-[1,4]diazepan-5-one], for which the IC50 was found to be 1290 nM.

In the case of `O=C(/C=C/c1ccc(Cl)c(Cl)c1)N1CCC(=O)N(CCCNC2CCCC2)CC1` [Example 36, 4-[3-(Cyclopentyl-amino)-propyl]-1-[(E)-3-(3,4-dichloro-phenyl)-acryloyl]-[1,4]diazepan-5-one], the IC50 is 725 nM.

For the molecule `O=C(/C=C/c1ccc(Cl)c(Cl)c1)N1CCC(=O)N(CCCN2CCS(=O)(=O)CC2)CC1` [Example 40, 1-[(E)-3-(3,4-Dichloro-phenyl)-acryloyl]-4-[3-(1,1-dioxo-thiomorpholin-4-yl)-propyl]-[1,4]diazepan-5-one], the IC50 is 611 nM.

(Values after patent US7632829B2, “Diazepan derivatives” (Hoffmann-La Roche Inc., priority 2006, dated 2009).)
